Data published in patent US20110118337A1, “Method of Using Compositions Comprising MIR-192 and/or MIR-215 for the Treatment of Cancer” (Merck Sharp & Dohme Corp., priority 2008, published 2011).

Legend:
HCT116 DICER^ex5 cells = test: Gene expression profiling (Agilent 44K microarray) after transfection of miR-192/miR-215 duplex mimetics; assay type: cell-based, human; conditions: 24 hr; 10 nM; vs mock-transfected
Experimental: Synthetic duplex mimetics of miR-192 and miR-215 (sequences shown in TABLE 1) or a control target Luciferase siRNA (Luc), shown in TABLE 1, were transfected (10 nM final concentration) into HCT116 DICER^ex5, a human colorectal cancer cell line with hypomorphic DICER function (Cummins, J. M., et al., PNAS 103:3687-3692 (2006)). The transfections were carried out using Lipofectamine RNAiMax (Invitrogen) per the manufacturer's instructions. At 10 and 24 hours post-transfection, total RNA was extracted and gene expression profiling was carried out with the Agilent 44K microarray in comparison to RNA isolated from mock-transfected HCT116DICER^ex5 cells. Microarray analysis was carried out as described in Linsley, P. S., et al., Mol Cell Biol 27:2240-2252 (2007). Gene expression data analysis was done either with the Rosetta Resolver gene expression analysis software (Version 7.1 Rosetta Biosoftware).

HCT116DICER^ex5 cells = test: Phospho-histone H3 immunostaining, flow cytometry (M-phase), nocodazole-treated; assay type: cell-based, human; conditions: phospho-histone-H3 positive, 10 nM duplex
Experimental: At 48 hours post transfection, cells were left untreated, treated with nocodazole (100 ng/mL, Sigma-Aldrich), or treated with aphidicolin (2 μg/mL, Sigma-Aldrich) for an additional 18 hours before harvesting. The cells were then trypsinized, collected, fixed and stained with a propidium iodide solution. BrdU-labeling was performed according to the manufacturer's instructions (BD-Pharmigen). For phospho-histone H3 analysis, cells were fixed and permeabilized with IPF buffer (100 mM PIPES pH 6.8, 10 mM EDTA, 1 mM MgCl2, 0.2% Triton X-100, 4% formaldehyde) and stained with propidium iodide and anti-phospho-histone H3 antibody conjugated to Alexa-488 (Cell Signaling Technology). The cells were analyzed using a FACSCalibur flow cytometer (Beacton Dickinson) and FlowJo software (Tree Star, Inc.).
Nocodazole-treated mock transfected and miR-192 transfected cells were also permeabilized, immunostained for phospho-histone-H3 (a mitotic marker) and sorted for DNA content and the respective accumulation of positively stained cells in the mitotic compartment was quantified. It was determined that the percentage of cells in M-phase in the mock transfected population was 40.9%, whereas the percentage of cells in M-phase in the miR-192 transfected population was 4.9%.

## miR-192: Synthetic duplex mimetic of miR-192, guide CUGACCUAUGAAUUGACAGCC (SEQ ID NO:1), passenger SEQ ID NO:7 (sense CUGUCAAUUCAUCGGUCUGAU; listed as RNA, chemistry not given here; listed as Homo sapiens)
HCT116 DICER^ex5 cells
  BCL2 transcript fold change: −1.46 fold change
  BRCA1 transcript fold change: −1.35 fold change
  CDC7 transcript fold change: −2.05 fold change
  CDC14A transcript fold change: −1.16 fold change
  CDC73 transcript fold change: −1.17 fold change
  CRK transcript fold change: −1.44 fold change
  CTCF transcript fold change: −1.78 fold change
  CUL5 transcript fold change: −1.35 fold change
  DBF4B transcript fold change: −1.33 fold change
  DEK transcript fold change: −1.47 fold change
  DLG5 transcript fold change: −2.22 fold change
  DTL transcript fold change: −1.38 fold change
  EMP1 transcript fold change: −1.66 fold change
  ERCC3 transcript fold change: −1.6 fold change
  EXTL2 transcript fold change: −1.5 fold change
  FGF2 transcript fold change: −1.83 fold change
  HOXA10 transcript fold change: −2.3 fold change
  HRH1 transcript fold change: −1.77 fold change
  KIF14 transcript fold change: −1.42 fold change
  KIF23 transcript fold change: −1.34 fold change
  LMNB2 transcript fold change: −1.82 fold change
  MACF1 transcript fold change: −1.64 fold change
  MAD2L transcript fold change: −1.53 fold change
  MCM3 transcript fold change: −1.91 fold change
  MCM6 transcript fold change: −1.33 fold change
  MCM10 transcript fold change: −2.37 fold change
  MIS12 transcript fold change: −1.73 fold change
  MKI67 transcript fold change: −1.4 fold change
  MPHOSPH1 transcript fold change: −1.87 fold change
  MTSS1 transcript fold change: −1.47 fold change
  NBN transcript fold change: −1.27 fold change
  NCAPH transcript fold change: −1.32 fold change
  NEK1 transcript fold change: −1.47 fold change
  NFIB transcript fold change: 1.82 fold change
  NFYA transcript fold change: −1.35 fold change
  NIN transcript fold change: 1.38 fold change
  PAFAH1B1 transcript fold change: −2.22 fold change
  PAPD5 transcript fold change: −1.44 fold change
  PFTK1 transcript fold change: −1.33 fold change
  PIM1 transcript fold change: −1.73 fold change
  PLAU transcript fold change: −1.95 fold change
  PLS3 transcript fold change: −1.57 fold change
  POLQ transcript fold change: −1.18 fold change
  POLS transcript fold change: −1.39 fold change
  PPP1CA transcript fold change: −2.18 fold change
  PRPF38A transcript fold change: −1.17 fold change
  RACGAP1 transcript fold change: −1.9 fold change
  RAD1 transcript fold change: −1.37 fold change
  RAD21 transcript fold change: −1.36 fold change
  RAD51 transcript fold change: −1.23 fold change
  RAP1GAP transcript fold change: −1.43 fold change
  RB1 transcript fold change: −1.45 fold change
  SEPT10 transcript fold change: −1.98 fold change
  SERTAD2 transcript fold change: −1.31 fold change
  SH3BP4 transcript fold change: −1.9 fold change
  SMARCB1 transcript fold change: −1.3 fold change
  TDG transcript fold change: −1.52 fold change
  TDP1 transcript fold change: −1.66 fold change
  TOP1 transcript fold change: −1.66 fold change
  TUBGCP3 transcript fold change: −1.52 fold change
  USP1 transcript fold change: −1.35 fold change
  UVRAG transcript fold change: −1.38 fold change
HCT116DICER^ex5 cells
  percentage of cells in M-phase: 4.9%
